The values that follow come from patent publication EP0326331B1, “Substituted quinolines and cinnolines” (Dow AgroSciences LLC, priority 1988, dated 1989).

Common to all, as to format: in vivo
The test system of assay [1] is Erysiphe graminis tritici (powdery mildew). Put plainly: Test 1 greenhouse foliar spray screen, powdery mildew on wheat. The settings on record: for POWD MDEW: disease control rating, foliar spray on wheat, 400 ppm (+++ at 100 ppm); for pest or weed control at 400 ppm: Blumeria graminis, foliar, Test 1, foliar spray on wheat, disease control rating at 400 ppm / 100 ppm, read-out: POWD MDEW.

The subject of assay [2] is Pyricularia oryzae (rice blast). Put plainly: whole plant or invertebrate. The settings on record: for RICE BLAST: disease control rating, foliar spray on rice, 400 ppm (+++ at 100 ppm); for pest or weed control at 400 ppm: Pyricularia oryzae, foliar, read-out: RICE BLAST, Test 1, foliar spray on rice, disease control rating at 400 ppm / 100 ppm.
The test system of assay [3] is Puccinia recondita tritici (leaf rust). The experiment in a line: Test 1 greenhouse foliar spray screen, leaf rust on wheat. The settings on record: for LEAF RUST: disease control rating, foliar spray on wheat, 400 ppm (+++ at 100 ppm); for pest or weed control at 400 ppm: Puccinia recondita, foliar, Test 1, foliar spray on wheat, disease control rating at 400 ppm / 100 ppm.

In assay [4] the test system is Botrytis cinerea (gray mold). Put plainly: Test 1 greenhouse foliar spray screen, gray mold on grape berries. To be noted: for GRAY MOLD: disease control rating, spray on grape berries, 400 ppm (+++ at 100 ppm); for pest or weed control at 400 ppm: Botrytis cinerea, foliar, Test 1, spray on grape berries, disease control rating at 400 ppm / 100 ppm.
Assay [5] concerns Pseudoperonospora cubensis (downy mildew). Put plainly: Test 1 greenhouse foliar spray screen, downy mildew on squash. The settings on record: for DOWN MDEW: disease control rating, foliar spray on squash, 400 ppm (+++ at 100 ppm); for pest or weed control at 400 ppm: Pseudoperonospora cubensis, foliar, Test 1, foliar spray on squash, disease control rating at 400 ppm / 100 ppm, read-out: DOWN MDEW.

Assay [6] has as its system southern armyworm (Spodopetra eridania Cramer). Put plainly: Mite/insect screen, SAW. To be noted: Spodoptera eridania, percent mortality, read-out: SAW RESULTS %. Put shortly: (§1)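 Formulation: acetone/alcohol 50:50 + sulfonate/nonionic emulsifiers, water-diluted to indicated concs. Spray both leaf surfaces to runoff, 10 psi; dry 1 h. Armyworm: 2 excised uninfested leaves in Petri dish. Score % mortality after standard exposure.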

Assay [7] concerns Twospotted spider mites (Tetranychus urticae Koch). Put plainly: Mite/insect screen, SM. To be noted: Tetranychus urticae, percent mortality, read-out: SM RESULTS %. Put shortly: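 Compounds dissolved in 50:50 acetone/alcohol containing sulfonate/nonionic emulsifier blends, then diluted with water to the indicated concentrations. Leaves sprayed on both surfaces to runoff at 10 psi and dried one hour. Percent mortality scored after standard exposure periods.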

The subject of assay [8] is melon aphids (Aphis gossypii Glover). The experiment in a line: Mite/insect screen, MA. The settings on record: Aphis gossypii, percent mortality, read-out: MA RESULTS %. The procedure, abridged: as §1
In the next assay the test system is corn rootworm. Put plainly: Mite/insect screen, CRW. The settings on record: percent mortality, read-out: CRW RESULTS %. The procedure, abridged:
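Percent mortality is evaluated once the standard exposure period ends. Test material is applied as a water dilution of an acetone/alcohol (50:50) stock carrying two sulfonate/nonionic emulsifiers (23 and 13 g per liter).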

The mark [9] stands for this setting: foliar, rate 200 ppm, foliar spray on squash.
[10] abbreviates: foliar, rate 400 ppm, foliar spray on squash.

Read-outs that look alike come from different tables or passages of the source.

Turning to `CC(=O)N(CCC1=CCCCC1)c1ccnc2c(C)ccc(C)c12` [Example 160, N-[2-(1-cyclohexenyl)ethyl]-N-(5,8-dimethyl-4-quinolinyl)acetamide], in [1], the “POWD MDEW” value is recorded as “- (0-19% control at 400 ppm)”. The “RICE BLAST” value in assay [2] is “+ (20-89% control at 400 ppm)”. Further, in assay [3], the “LEAF RUST” value was “- (0-19% control at 400 ppm)”. The “GRAY MOLD” value in assay [4] is “- (0-19% control at 400 ppm)”. For the same compound, the “DOWN MDEW” value in assay [5] is reported as “- (0-19% control at 400 ppm)”. Besides, the mortality at 200 ppm is 0% in assay [6] (SAW, SM & MA RATE 200 PPM); 0% in assay [7] (SAW, SM & MA RATE 200 PPM); 0% in assay [8] (SAW, SM & MA RATE 200 PPM). The mortality at 400 ppm was determined as 0% in [6] (SAW, SM & MA RATE 400 PPM); 0% in [7] (SAW, SM & MA RATE 400 PPM); 0% in assay [8] (SAW, SM & MA RATE 400 PPM). In addition, the mortality at 12 ppm in the assay with corn rootworm (CRW RATE 12.00 PPM) stood at 0%. For the same compound, in the assay with corn rootworm (CRW RATE 24.00 PPM), the mortality at 24 ppm came out at 0%.

Regarding `CC(=O)N(CCC1CCCCC1)c1ccnc2c(F)cccc12` [Example 161, N-(2-cyclohexylethyl)-N-(8-fluoro-4-quinolinyl)acetamide], the “POWD MDEW” value in [1] is “+ (20-89% control at 400 ppm)”. Besides, in assay [2], the “RICE BLAST” value is on record as “+ (20-89% control at 400 ppm)”. Besides, the “LEAF RUST” value in [3] is recorded as “- (0-19% control at 400 ppm)”. The “GRAY MOLD” value in assay [4] was “- (0-19% control at 400 ppm)”. In [5], the “DOWN MDEW” value is listed as “+ (20-89% control at 400 ppm)”. In addition, the mortality at 200 ppm in assay [6] (SAW, SM & MA RATE 200 PPM) turned out to be 0%; in assay [7] (SAW, SM & MA RATE 200 PPM), 0%; in [8] (SAW, SM & MA RATE 200 PPM), 0%. Moreover, the mortality at 400 ppm in assay [6] (SAW, SM & MA RATE 400 PPM) came to 0%; in assay [7] (SAW, SM & MA RATE 400 PPM), 0%; in assay [8] (SAW, SM & MA RATE 400 PPM) it was 80%. Moreover, the mortality at 12 ppm in the assay on corn rootworm (CRW RATE 12.00 PPM) turned out to be 0%. The mortality at 24 ppm in the assay on corn rootworm (CRW RATE 24.00 PPM) came out at 40%.

`FC(F)(F)c1ccc2c(NCCC3=CCCCC3)ccnc2c1` [Example 167, N-[2-(1-cyclohexenyl)ethyl]-7-(trifluoromethyl)-4-quinolinamine]: the “POWD MDEW” value in [1] is on record as “+ (20-89% control at 400 ppm)”. Further, the “RICE BLAST” value in assay [2] is recorded as “- (0-19% control at 400 ppm)”. In addition, the “LEAF RUST” value in [3] was “- (0-19% control at 400 ppm)”. Also, the “GRAY MOLD” value in assay [4] is reported as “- (0-19% control at 400 ppm)”. Besides, in [5], the “DOWN MDEW” value was “+ (20-89% control at 400 ppm)”. For the same compound, the mortality at 200 ppm in assay [6] (setting [9]), in [7] (setting [9]) and in assay [8] (setting [9]) was 0% each time. In addition, the mortality at 400 ppm in [6] (setting [10]), in [7] (setting [10]) and in [8] (setting [10]) was 0% each time. For the same compound, the mortality at 12 ppm with corn rootworm (CRW rate 12.00 ppm) came out at 0%. For the same compound, the mortality at 24 ppm in the assay on corn rootworm (CRW rate 24.00 ppm) stood at 0%.

Regarding `Fc1cccc2c(NCCC3CCCCC3)ccnc12` [Example 177, N-(2-cyclohexylethyl)-8-fluoro-4-quinolinamine], the “POWD MDEW” value in assay [1] is “++ (90-100% control at 400 ppm)”. The “RICE BLAST” value in assay [2] is reported as “+++ (90-100% control at 100 ppm)”. The “LEAF RUST” value in assay [3] is listed as “+++ (90-100% control at 100 ppm)”. Also, in assay [4], the “GRAY MOLD” value is “- (0-19% control at 400 ppm)”. For the same compound, the “DOWN MDEW” value in assay [5] is “+++ (90-100% control at 100 ppm)”. The mortality at 200 ppm in assay [6] (setting [9]), in assay [7] (setting [9]) and in assay [8] (setting [9]) was 0% throughout. The mortality at 400 ppm in assay [6] (setting [10]), in assay [7] (setting [10]) and in [8] (setting [10]) was 0% each time. The mortality at 12 ppm in the assay with corn rootworm (CRW rate 12.00 ppm) is 0%. In the assay on corn rootworm (CRW rate 24.00 ppm), the mortality at 24 ppm is 100%.

With `Cc1cc(C)c2nccc(NCCC3CCCCC3)c2c1` [Example 178, N-(2-cyclohexylethyl)-6,8-dimethyl-4-quinolinamine], in assay [1], the “POWD MDEW” value is reported as “- (0-19% control at 400 ppm)”. Further, the “RICE BLAST” value in assay [2] is “+ (20-89% control at 400 ppm)”. Besides, the “LEAF RUST” value in assay [3] is on record as “++ (90-100% control at 400 ppm)”. In addition, in [4], the “GRAY MOLD” value is reported as “- (0-19% control at 400 ppm)”. For the same compound, in assay [5], the “DOWN MDEW” value is listed as “+++ (90-100% control at 100 ppm)”. Further, the mortality at 200 ppm in [6] (setting [9]), in assay [7] (setting [9]) and in [8] (setting [9]) was 0% each time. The mortality at 400 ppm in assay [6] (setting [10]), in assay [7] (setting [10]) and in [8] (setting [10]) was 0% throughout. Besides, the mortality at 12 ppm in the assay on corn rootworm (CRW rate 12.00 ppm) was 0%. Moreover, in the assay with corn rootworm (CRW rate 24.00 ppm), the mortality at 24 ppm stood at 0%.

For the compound `CC(=O)N(CCc1ccc(Cl)cc1)c1cc(N(CCc2ccc(Cl)cc2)C(C)=O)c2ccccc2n1` [Example 182, N,N'-(2,4-quinolinediyl)bis[N-[2-(4-chlorophenyl)ethyl]acetamide]], in [1], the “POWD MDEW” value was “- (0-19% control at 400 ppm)”. Also, in [2], the “RICE BLAST” value was “+ (20-89% control at 400 ppm)”. The “LEAF RUST” value in assay [3] was “- (0-19% control at 400 ppm)”. Besides, the “GRAY MOLD” value in [4] is on record as “- (0-19% control at 400 ppm)”. In addition, the “DOWN MDEW” value in [5] is “- (0-19% control at 400 ppm)”. The mortality at 200 ppm in assay [6] (setting [9]), in [7] (setting [9]) and in assay [8] (setting [9]) was 0% throughout. Further, the mortality at 400 ppm in [6] (setting [10]), in [7] (setting [10]) and in assay [8] (setting [10]) was 0% throughout. In addition, in the assay on corn rootworm (CRW rate 12.00 ppm), the mortality at 12 ppm is 0%. Moreover, the mortality at 24 ppm with corn rootworm (CRW rate 24.00 ppm) worked out at 0%.

`Clc1ccc(CCNc2ccc3nccc(NCCc4ccc(Cl)cc4)c3c2)cc1` [Example 185, N,N'-bis[2-(4-chlorophenyl)ethyl]-4,6-quinolinediamine]: in assay [1], the “POWD MDEW” value is on record as “- (0-19% control at 400 ppm)”. Further, the “RICE BLAST” value in assay [2] is reported as “+ (20-89% control at 400 ppm)”. The “LEAF RUST” value in assay [3] is “+ (20-89% control at 400 ppm)”. In assay [4], the “GRAY MOLD” value is listed as “- (0-19% control at 400 ppm)”. For the same compound, the “DOWN MDEW” value in assay [5] is recorded as “+ (20-89% control at 400 ppm)”. The mortality at 200 ppm in assay [6] (setting [9]), in assay [7] (setting [9]) and in assay [8] (setting [9]) was 0% throughout. Besides, the mortality at 400 ppm in assay [6] (setting [10]), in assay [7] (setting [10]) and in assay [8] (setting [10]) was 0% in each case. Further, the mortality at 12 ppm in the assay with corn rootworm (CRW rate 12.00 ppm) amounted to 0%. In the assay on corn rootworm (CRW rate 24.00 ppm), the mortality at 24 ppm was found to be 0%.

Turning to `Fc1cccc2c(NCCc3ccc(Cl)cc3)cc(NCCc3ccc(Cl)cc3)nc12` [Example 188, N,N'-bis[2-(4-chlorophenyl)ethyl]-8-fluoro-2,4-quinolinediamine], the pest or weed control at 400 ppm in assay [1] fell in the range of 0 to 19%; in [2], 90 to 100%; in assay [3], 20 to 89%; in assay [4], 0 to 19%; in assay [5] it was 90 to 100%. Moreover, the mortality at 400 ppm in assay [6] (setting [10]), in [7] (setting [10]) and in assay [8] (setting [10]) was 0% each time. For the same compound, in the assay on corn rootworm (CRW rate 24.00 ppm), the mortality at 24 ppm was 0%.

On to `CC(=O)N(CCc1ccc(Cl)cc1)c1ccc2c(N(CCc3ccc(Cl)cc3)C(C)=O)ccnc2c1` [Example 191, N,N'-(4,7-quinolinediyl)bis[N-[2-(4-chlorophenyl)ethyl]acetamide]], for which the pest or weed control at 400 ppm in [1] lay within 0 to 19%; in assay [2], 20 to 89%; in assay [3], 90 to 100%; in [4] it was 0 to 19%; in assay [5] it was 0 to 19%. Besides, the mortality at 200 ppm in [6] (setting [9]), in assay [7] (setting [9]) and in [8] (setting [9]) was 0% throughout. Moreover, the mortality at 400 ppm in [6] (setting [10]), in [7] (setting [10]) and in assay [8] (setting [10]) was 0% each time. In the assay with corn rootworm (CRW rate 12.00 ppm), the mortality at 12 ppm came out at 0%. In addition, the mortality at 24 ppm in the assay on corn rootworm (CRW rate 24.00 ppm) is 0%.
